Test results reported in ChEMBL document CHEMBL1157527 (2008).

system: Candida albicans; experiment: Antifungal activity against Candida albicans; format: functional; further: unit not given here

| SMILES | p(1/MIC) |
| --- | --- |
| CCCCCCC(C)(O)C[N+](C)(C)[BH2-]C#N (stereo unspecified) | 3.344 |
| CCCCCCCCCCC[N+](C)(C)[BH-](Br)C#N (stereo unspecified) | 1.69 |
| C[N+](C)([BH2-]C#N)CCCCCCCCCC[N+](C)(C)[BH2-]C#N | 2.611 |
| C=CCCCC[N+](C)(C)[BH2-]C#N | 1.973 |
| C[N+](C)(C)[B-](Br)(Br)C#N | 3.295 |
| CCCCCCCCCCC[N+](C)(C)[B-](Br)(Br)C#N | 1.591 |
| Cc1c(Cn2ccnc2)c2cc(Br)ccc2n1Cc1ccccc1F | 2.415 |
| Cc1c(Cn2ccnc2)c2cc(Br)ccc2n1Cc1ccc(F)cc1 | 2.415 |
| Fc1ccc(Cn2cc(Cn3ccnc3)c3ccccc32)cc1 | 1.117 |
| Cc1c(Cn2ccnc2)c2cc(Br)ccc2n1Cc1ccc(Cl)cc1 | 1.902 |
| CC(C)C(c1cn(Cc2ccc(Cl)cc2)c2ccccc12)n1ccnc1 (stereo unspecified) | 1.138 |
| Clc1ccc(Cn2cc(Cn3ccnc3)c3ccccc32)c(Cl)c1 | 1.147 |
| Cc1c(Cn2ccnc2)c2cc(Br)ccc2n1Cc1ccccc1Cl | 2.397 |
| CCCCCCCCCCCCCCOP(=O)(OCCC#N)OC(Cn1cncn1)(Cn1cncn1)c1ccc(F)cc1F (stereo unspecified) | 3.17 |
| N#CCCOP(=O)(OCCCCCCCCCCCBr)OC(Cn1cncn1)(Cn1cncn1)c1ccc(F)cc1F (stereo unspecified) | 3.392 |
| Cc1c(Cn2ccnc2)c2ccccc2n1Cc1ccc(F)cc1 | 2.496 |
| Cc1c(C(C)n2ccnc2)c2ccccc2n1Cc1ccc(F)cc1 (stereo unspecified) | 1.819 |
| Cc1c(C(C)n2ccnc2)c2ccccc2n1Cc1ccc(Br)cc1 (stereo unspecified) | 2.404 |
| Cc1c(Cn2ccnc2)c2ccccc2n1Cc1cc(Cl)ccc1Cl | 1.432 |
| CCCCCCCCCCCCCCC[N+](C)(C)[BH2-]C#N | 1.724 |
| C[N+](C)(CCCCCCCCCC[N+](C)(C)[BH-](Br)C#N)[BH-](Br)C#N (stereo unspecified) | 2.146 |

| SMILES | p(1/MIC) |
| --- | --- |
| C[N+](C)(CCCCCCCCCC[N+](C)(C)[B-](Br)(Br)C#N)[B-](Br)(Br)C#N | 2.017 |
| CCCCCCCCCCCCC[N+](C)(C)[BH2-]C#N | 1.763 |
| O=C(Nc1ccc2oc(-c3ccc(F)cc3)nc2c1)SCc1ccccc1 | 1.813 |
| C[N+](C)([BH2-]C#N)CC1(O)C=CCC1 (stereo unspecified) | 3.142 |
| CC(Br)C(=O)OC(Cn1cncn1)(Cn1cncn1)c1ccc(F)cc1F (stereo unspecified) | 3.172 |
| CCCC(Br)C(=O)OC(Cn1cncn1)(Cn1cncn1)c1ccc(F)cc1F (stereo unspecified) | 2.768 |
| C[N+](C)([BH2-]C(=O)O)CCCCCCCCCC[N+](C)(C)[BH2-]C(=O)O | 2.274 |
| C[N+](C)([BH2-]C#N)CCCCCCCCCCCC[N+](C)(C)[BH2-]C#N | 1.982 |
| C[N+](C)([BH2-]C#N)CCCCCCCCCCCCCC[N+](C)(C)[BH2-]C#N | 1.634 |
| CCCCC(Br)C(=O)OC(Cn1cncn1)(Cn1cncn1)c1ccc(F)cc1F (stereo unspecified) | 2.1 |
| O=C(Nc1ccc2oc(-c3ccccc3)nc2c1)OCc1ccc(Cl)cc1 | 1.544 |
| O=C(Nc1ccc2oc(-c3ccccc3)nc2c1)SCc1ccccc1 | 1.839 |
| O=C(Cc1ccc([N+](=O)[O-])cc1)Nc1ccc2oc(-c3ccc(F)cc3)nc2c1 | 1.532 |
| O=C(CCc1ccccc1)Nc1ccc2oc(-c3ccc(F)cc3)nc2c1 | 2.127 |
| O=C(Nc1ccc2oc(-c3ccc(F)cc3)nc2c1)OCc1ccc(Cl)cc1 | 1.806 |
| O=C(Cc1ccccc1)Nc1ccc2oc(-c3ccc(F)cc3)nc2c1 | 1.82 |
| O=C(OC(Cn1cncn1)(Cn1cncn1)c1ccc(F)cc1F)C(Br)CCCCCCCCCCBr (stereo unspecified) | 1.342 |
| CN(C)c1ccc(-c2nc3cc(NC(=O)CCc4ccccc4)ccc3o2)cc1 | 1.82 |
| CC(=O)Oc1ccccc1C(=O)OC(Cn1cncn1)(Cn1cncn1)c1ccc(F)cc1F | 3.413 |
| CN(C)c1ccc(-c2nc3cc(NC(=O)OCc4ccccc4)ccc3o2)cc1 | 2.143 |
| CCCCCCCCCCC(Br)C(=O)OC(Cn1cncn1)(Cn1cncn1)c1ccc(F)cc1F (stereo unspecified) | 3.412 |

| SMILES | p(1/MIC) |
| --- | --- |
| CN(C)c1ccc(-c2nc3cc(NC(=O)OCc4ccc(Cl)cc4)ccc3o2)cc1 | 1.875 |
| CCCCCCCCCCCCCC(=O)OC(Cn1cncn1)(Cn1cncn1)c1ccc(F)cc1F | 3.143 |
| CCc1ccc(-c2nc3cc(NC(=O)OCc4ccccc4)ccc3o2)cc1 | 1.477 |
| CCc1ccc(-c2nc3cc(NC(=O)OCc4ccc(Cl)cc4)ccc3o2)cc1 | 1.792 |
| CCCCCCCCCCCOP(=O)(OC)OC(Cn1cncn1)(Cn1cncn1)c1ccc(F)cc1F (stereo unspecified) | 3.138 |
| C=CCCCCCCCCCOP(=O)(OC)OC(Cn1cncn1)(Cn1cncn1)c1ccc(F)cc1F (stereo unspecified) | 2.616 |
| Clc1ccc(Cn2cc(Cn3ccnc3)c3ccccc32)cc1 | 1.924 |
| CCCCCCCCCCCOP(=O)(OCCC#N)OC(Cn1cncn1)(Cn1cncn1)c1ccc(F)cc1F (stereo unspecified) | 2.494 |
| C=CCCCCCCCCCOP(=O)(OCCC#N)OC(Cn1cncn1)(Cn1cncn1)c1ccc(F)cc1F (stereo unspecified) | 2.314 |
| C=CCCCCCCCCCOP(=O)(O)OC(Cn1cncn1)(Cn1cncn1)c1ccc(F)cc1F | 3.445 |
| CCCCCCCCCCCCCCOP(=O)(O)OC(Cn1cncn1)(Cn1cncn1)c1ccc(F)cc1F | 3.208 |
| CCCCCCCCOP(=O)(OCCC#N)OC(Cn1cncn1)(Cn1cncn1)c1ccc(F)cc1F (stereo unspecified) | 3.091 |
| C=CCC[N+](C)(C)[BH2-]C#N | 2.672 |
| CCCCCCCCCC(O)C[N+](C)(C)[BH2-]C#N (stereo unspecified) | 2.692 |
| CCCCCCCCCCC[N+](C)(C)[BH2-]C#N | 1.512 |
| C[N+](C)([BH2-]C#N)CC(O)c1ccccc1 (stereo unspecified) | 2.389 |
| CCCCCCCCCCC[N+](C)(C)[BH-](F)C#N (stereo unspecified) | 1.806 |
| O=C(OCCCl)OC(Cn1cncn1)(Cn1cncn1)c1ccc(F)cc1F | 3.374 |
| CC(C)(C)C(c1cn(Cc2ccc(Cl)cc2)c2ccccc12)n1ccnc1 (stereo unspecified) | 1.208 |
| Fc1ccc(Cn2cc(Cn3ccnc3)c3ccccc32)c(F)c1 | 1.695 |
| CCCCCCC(Br)C(=O)OC(Cn1cncn1)(Cn1cncn1)c1ccc(F)cc1F (stereo unspecified) | 1.431 |

| SMILES | p(1/MIC) |
| --- | --- |
| Cc1c(Cn2ccnc2)c2ccccc2n1Cc1ccc(Cl)cc1 | 0.474 |
| CC(=O)OC(Cn1cncn1)(Cn1cncn1)c1ccc(F)cc1F | 3.61 |
| CCc1ccc(-c2nc3cc(NC(=O)CCc4ccccc4)ccc3o2)cc1 | 1.813 |
| CCc1ccc(-c2nc3cc(NC(=O)SCc4ccccc4)ccc3o2)cc1 | 2.161 |
| O=C(Nc1ccc2oc(-c3ccccc3)nc2c1)OCc1ccccc1 | 1.505 |
| O=C(Nc1ccc2oc(-c3ccc(F)cc3)nc2c1)c1ccccc1 | 2.1 |
| CCC(Br)C(=O)OC(Cn1cncn1)(Cn1cncn1)c1ccc(F)cc1F (stereo unspecified) | 2.846 |
| O=C(Nc1ccc2oc(-c3ccc(F)cc3)nc2c1)OCc1ccccc1 | 1.785 |
| CCCCCCCCCCCOP(=O)(O)OC(Cn1cncn1)(Cn1cncn1)c1ccc(F)cc1F | 3.148 |
| CCCCCCCCOP(=O)(OC)OC(Cn1cncn1)(Cn1cncn1)c1ccc(F)cc1F (stereo unspecified) | 2.962 |
| O=P(O)(OCCCCCCCCCCCBr)OC(Cn1cncn1)(Cn1cncn1)c1ccc(F)cc1F | 3.377 |
| CCCCCCCCCCCC[N+](C)(C)[BH2-]C#N [(CYANOBORANYLIDENE)(DODECYL)DIMETHYLAMINE] | 1.785 |
| CC[N+](C)(C)[BH2-]C#N [(CYANOBORANYLIDENE)(ETHYL)DIMETHYLAMINE] | 3.649 |
| CCCCCCCCC[N+](C)(C)[BH2-]C#N [(CYANOBORANYLIDENE)DIMETHYLNONYLAMINE] | 2.176 |
| CCCCC[N+](C)(C)[BH2-]C#N [(CYANOBORANYLIDENE)DIMETHYLPENTYLAMINE] | 2.909 |
| C[N+](C)([BH2-]C#N)C[Si](C)(C)C [(CYANOBORANYLIDENE)DIMETHYL[(TRIMETHYLSILYL)METHYL]AMINE] | 3.468 |
| C[N+](C)(C)[BH2-]C#N [(CYANOBORANYLIDENE)TRIMETHYLAMINE] | 3.708 |
| CCCC[N+](C)(C)[BH2-]C#N [BUTYL(CYANOBORANYLIDENE)DIMETHYLAMINE] | 3.553 |
